System: Akt and MEK1
Assay: Western blot of pathway inhibitor treated cells
Format: cell-based, human
Conditions: cells collected one hour after plating on LN-521, vs DMSO control
Excerpt: InSolutionTM LY 294002 (a specific […]), InSolutionTM Wortmannin (a specific PI3K inhibitor), and InSolutionTM 98059 (a specific MEK1/Erk inhibitor) were purchased from Calbiochem. Antibodies to phospho-Akt (#4060), total-Akt (#9272), phospho-Erk (#9101), and total-Erk (#9102) were obtained from Cell Signaling Technology. PathScan Phospho-Akt1 sandwich ELISA kit (#7160), PathScan total Akt1 sandwich ELISA kit (#7170), PathScan Phospho-Akt2 sandwich ELISA kit (#7048), and PathScan total Akt2 sandwich ELISA kit (#7046) were also purchased from Cell Signaling Technology. Antibodies to Calnexin (#ab10286) were obtained from Abcam. Function blocking antibodies to various integrin subunits, mouse isotype antibodies, and α-dystroglycan were purchased from Millipore. Since function blocking antibodies to αV (MAB1980) and α6 (MAB1378) were presented in a solution with sodium azide, before the inhibition of survival experiment all the antibodies to alpha integrin subunits were dialyzed thrice against O3 medium for 2 hours each time. Antibodies to Lutheran receptor and α-fetoprotein, as well as rat isotype control antibodies were obtained from R&D Systems. Antibodies to Oct4, Nanog, SSEA-4, smooth muscle actin and MAP-2 were purchased from Millipore. […] For the densitometry analysis the films were scanned at 2,400 dpi and analyzed by the […]5500 program (1D-Multi Line densitometry mode). […]

SMILES: COc1cccc(-c2cc(=O)c3ccccc3o2)c1N [PD 98059]
- efficacy of inhibitor treatment by western blot: confirmed

Source: US8415156B2, “Recombinant laminin-521” (Biolamina AB, priority 2010, dated 2013)
